We go through 1 compound from US20240285594A1, “COMPOSITIONS AND METHODS FOR TREATING PAIN IN ANIMALS” (North Carolina State University, priority 2023, published 2024).

One experiment relates to cortisol. Nature of the experiment: Serum cortisol after surgical or sham castration of piglets (Part I, physiological assessment). It counts as in vivo. As to conditions: 1 h post-castration, castrated piglets, compared to C (saline) and CL, FM 2.2 mg/kg intranasal, buffered lidocaine intra-inguinal. How it is done: A total of 197 Large White×Duroc cross male piglets from 35 litters were enrolled in the study (Table 1). Piglets were individually identified using ear tags (Allflex Global Piglet ear tags, Allflex Livestock Intelligence, Madison, WI), weighed and randomly allocated to one of eight treatment groups (FIG. 1).
Lidocaine was buffered by mixing 2 ml of 8.4% Sodium Bicarbonate to 20 ml of 2% lidocaine HCl injectable solution to achieve a pH of 6.8 (Lidocaine Hydrochloride, Covetrus, Dublin, Ohio, US). […] Piglets were held by both rear legs by one caretaker with the abdomen facing the individual administrating treatment. Buffered lidocaine was injected intra-inguinally (Picture 1) by a second caretaker using a ½ inch needle (Ideal® D3 20 Gauge, Neogen, Lansing, MI) inserted into a syringe (Prima Tech® 2 cc Bottle Mount Vaccinator, Prima Tech USA, Kenansville, NC). A total of 1.5 ml of buffered lidocaine per injection site was administered intramuscularly (IM) into each inguinal canal (left and right) at a 40-degree angle 5-7 cm from the scrotum and 2-3 cm from the abdominal wall. Piglets enrolled in the control treatment (C, S, CF, SF−T1: (C) Castration plus physiological saline (IM and IN; n=25); T2: (S) Sham plus physiological saline (IM and IN; n=25); T5: (CF) Castration plus flunixin (IN; n=25); T6: (SF) Sham plus flunixin (IN; n=24)) were handled in an identical manner and 1.5 ml of sterile saline was injected in the same two locations as described previously.
Immediately following intra-inguinal injection, piglets enrolled in the FM treatment groups were held in sternal recumbency by one individual and 2.2 mg/kg (Banamine®, Merck Animal Health, Madison, NJ, US) was administered in one nostril using was a MAD® nasal intranasal mucosal atomization device (Telefex Incorporated, Wayne, PA, US) attached to a Prima Tech® 0.5 cc bottle mount vaccinator. The same individual administered the treatment by gently holding the piglet's snout using their non-dominant hand to steady the head and administered the drug with the other hand. Piglets in the control group were handled in the same manner in an equivalent volume of 0.2 ml of sterile saline was administered as described above.
Castration was performed by one trained caretaker from the farm. Piglets were picked up, individually held by both hind legs with head down, and two vertical incisions were made through the skin of the scrotum over each testicle using a scalpel blade. Once the incisions were made, testicles were exposed, spermatic cords cut, and testicles were completely removed by traction. A sham castration was performed to mimic similar handling conditions in which piglets were picked up, held in the same manner, and had pressure applied to the scrotal area by the same individual responsible for castration.
Blood was collected 24 h prior to (−24 h), 1 h (1 h), and 24 h post castration (24 h, FIG. 2). Blood samples were collected using the technique described in other studies. The orbital sinus cavity was punctured using an Excel® disposable hypodermic needle 20G (Exel International, Quebec, Canada) and deposited into a 4 ml BD® red vacutainer serum tube (Med Vet International, Mettawa, IL). All tubes were maintained in a cooler and centrifuged (2,000×g for 15 min at 4° C.) no more than eight hours post-collection to separate serum. […]
Serum cortisol concentrations were quantified using a commercially available EIA kit (Arbor Assays DetectX Cortisol EIA Kit, Product #K003). […]

The nature of experiment [1]: UPAPS behavioral pain scoring and rescue analgesia after castration (Part II). It counts as in vivo, piglets. As to conditions: -1 h, 0 h and +3 h relative to castration; compared to C (saline). Here is the method: Behavior scoring was obtained in real-time by observing each piglet for 4-min continuously using Unesp-Botucatu pig acute pain scale (UPAPS). Each piglet was scored by one trained observer at the following timepoints: 1 h before castration (−1 h), immediately post-castration (0 h), and 3 h post-castration (+3 h, FIG. 3). The 4-min sampling time was obtained from the methodology previously validated. Treatments were masked, randomized, and applied to each piglet by a senior researcher. The Unesp-Botucatu UPAPS scale evaluates five behavioral items, with each item divided into four descriptive levels. A numerical score was designated from “0” to “3”, with a “0” representing normal behavior (free of pain) and “3” corresponding to pronounced behavioral deviation (severe pain). Therefore, for each timepoint, piglets may receive a score ranging from 0 (min) to 15 (max; Table 3). Total pain scores were then calculated for each piglet per timepoint. […] This is most referred to rescue analgesia in the literature; and was conducted for each behavioral assessment. Total counts were calculated for piglets identified as requiring or not requiring rescue analgesia by treatment and timepoint. […]

In another experiment the test system is prostaglandin E2 (PGE2). Nature of the experiment: Serum PGE2 after castration of piglets (Example 3). It counts as in vivo. As to conditions: intra-inguinal lidocaine; any time point. Here is the method: Pairwise comparisons of treatments at −24 h: P≥0.77. […] Pairwise comparisons of treatments at 24 h post-castration: P≥0.11.
The objective of this study was to evaluate the effects of intranasal flunixin and intra-inguinal lidocaine application on the castration associated inflammatory response in piglets, as described in Example 1.

Regarding `CCN(CC)CC(=O)Nc1c(C)cccc1C` [Buffered lidocaine, lidocaine], the cortisol concentrations entry is given as “no effect” in the experiment on cortisol and “not different” with cortisol (listed as CL). In experiment [1], the “total UPAPS scores” value was “no effect”. In addition, in the experiment on prostaglandin E2 (PGE2), the “inflammation (PGE2)” value is “did not mitigate inflammation”.
